Test results taken from publication PMC7586386, “Discovery of Covalent Inhibitors Targeting the Transcriptional Enhanced Associate Domain Central Pocket” (Journal of Medicinal Chemistry, 2020).
pIC50: −log10 of the molar value.

Experiments:
[1] = target: T1, hTEAD3 (Homo sapiens, UniProt Q99594); assay: Thiol conjugation assay, TEAD homologues; type: binding; conditions: read-out: TEAD3 IC50
T1 construct: N-terminal His6-tagged hTEAD4^216–434 was expressed; His6 (N); made in house
Protocol: (§1) To serially diluted solutions of the tested compounds in 5 μL of assay buffer [HEPES (25 mM) and NaCl (150 mM) pH 6.5], freshly prepared 5 μL of 0.45 μM protein solution was added and incubated at room temperature for 10 min, followed by addition of 5 μL of 0.45 μM CPM solution, giving a 15 μL final assay volume, 150 nM protein, and 150 nM CPM. The assay plate was shaken at room temperature for 1 h before measuring the fluorescence (Ex/Em: 380/470 nm). Compound 19 was used as an internal standard to determine 100% inhibition.

[2] = target: T2, hTEAD2 (Homo sapiens, UniProt Q15562); assay: Thiol conjugation assay, TEAD homologues; type: binding; conditions: read-out: TEAD2 IC50
T2 construct: N-terminal His6-tagged hTEAD4^217–447 was subcloned; His6 (N); made in house; host or cells: E. coli (as described for N-His hTEAD4)
Protocol: as §1

[3] = target: T3, hTEAD4 (nonacylated) (Homo sapiens, UniProt Q15561); assay: Differential scanning fluorimetry; type: binding; conditions: 20 μM protein, 80 μM inhibitor; value is a decrease
T3 construct: N-terminal His6-tagged hTEAD4^217–434 was subcloned; made in house; host or cells: Escherichia coli BL21-CodonPlus (DE3)-RIPL
Protocol: Nonacylated hTEAD4 (20 μM) was incubated in the absence or presence of inhibitors (80 μM) at 25 °C for 10 min. Then, SYPRO orange (Sigma-Aldrich) at a final concentration of 5× was added and the mixture was heated at a ramp rate of 1 °C/min in a qPCR machine (Applied Biosystems). The derivative of the SYPRO orange fluorescent intensity is plotted as a function of temperature.

[4] = target: T4, hTEAD4 (acylated) with YAP (Homo sapiens, UniProt Q15561); assay: FP-based competitive TEAD–YAP interaction assay (FITC-hYAP50–100); type: binding
T4 construct: N-terminal His6-tagged hTEAD4^217–434 was subcloned; made in house; host or cells: Escherichia coli BL21-CodonPlus (DE3)-RIPL
Protocol: (§2) All the TEAD–YAP binding experiments were performed in phosphate-buffered saline (PBS) (pH 7.5).
(§3) To serially diluted solution of the tested compounds in 5 μL of PBS, freshly prepared 5 μL of protein solution was added and incubated at room temperature for 10 min followed by addition of 5 μL of FAM-YAP^50–100 solution. The assay plate was shaken at room temperature for 1 h before measuring the FP (Ex/Em: 485/535 nm). Final protein and FAM concentrations are as follows (FAM/protein): hTEAD4 (nonacylated): 2 nM/5 nM, hTEAD4 (acylated): 3 nM/15 nM, mTEAD4_Cys360Ser: 10 nM/50 nM, and mTEAD4_Cys360Ala: 10 nM/50 nM.

[5] = target: T5, mTEAD4 Cys360Ser with YAP (Mus musculus, UniProt Q62296, C360S); assay: as above; type: binding
T5 construct: His (N); made in house
Protocol: as §2, §3

[6] = target: T6, mTEAD4 Cys360Ala with YAP (Mus musculus, UniProt Q62296, C360A); assay: as above; type: binding
T6 construct: N-terminal His6- and MBP-tagged mTEAD4^209–427 with Cys360Ala mutation; made in house; host or cells: E. coli BL21-CodonPlus (DE3)-RIPL
Protocol: as §2, §3

[7] = target: T7, hTEAD4 (Homo sapiens, UniProt Q15561); assay: Cellular thermal shift assay (CETSA) in HCT116 cell lysates; type: cell-based; conditions: 50 μM, 10 min, DMSO 49.8
T7 construct: Target engagement in HCT116 cell lysates was proven by means of a cellular thermal shift assay; endogenous in cells; host or cells: HCT116 cell lysate
Protocol: HCT116 cells were grown in Dulbecco’s modified Eagle’s medium (Sigma-Aldrich, #P04-03550) containing 10% fetal bovine serum, 1× NEAA (Sigma-Aldrich, # P08-32800) and 1 mM sodium pyruvate (Sigma-Aldrich, #S8636) until they reached 90% confluency. Cells were detached, transferred to two separate tubes, and washed three times with PBS. Then, 0.6 mL of PBS containing 0.04% NP-40 was added to each tube and cells were lysed by means of freeze and thaw. Lysates were centrifuged (Beckman Optima MAX-TL) at 100,000g, 4 °C for 25 min and protein concentration was determined using the DC Protein Assay Kit I (Bio-Rad, #5000111). Aliquots (1.5 mL) containing 1 mg/mL protein were stored at −80 °C until further usage.
Compound 19 (2.75 μL 10 mM stock, 50 μM) or DMSO (2.75 μL) was added to 550 μL of HCT116 lysates (1 mg/mL), samples were mixed and incubated for 10 min at room temperature. Treated and nontreated lysates were divided into ten aliquots, each 50 μL in PCR tubes. The aliquots were individually heated at different temperatures (Eppendorf Mastercycler ep Gradient S). […] To 16 μL of each supernatant was added 4 μL of 5× loading buffer and incubated for 5 min at 95 °C, before samples were analyzed by immunoblotting. […]
Images were analyzed with ImageJ (FUJI). […]

T5 sequence (Q62296 210-427 C360S limits assumed): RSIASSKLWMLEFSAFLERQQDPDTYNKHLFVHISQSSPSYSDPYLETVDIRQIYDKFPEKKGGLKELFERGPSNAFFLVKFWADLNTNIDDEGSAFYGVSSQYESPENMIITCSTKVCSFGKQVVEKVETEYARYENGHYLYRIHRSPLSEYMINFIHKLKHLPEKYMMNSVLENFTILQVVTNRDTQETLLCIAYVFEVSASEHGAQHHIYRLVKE
T4 sequence (Q15561 217-434): as the sequence (Q62296 210-427 C360S limits assumed) above, with I3V, R19Q, S35G, T48A, E67D, D91E, A96S, L142S, S151C counted along it
T3 sequence (Q15561 217-434): as the sequence (Q62296 210-427 C360S limits assumed) above, with I3V, R19Q, S35G, T48A, E67D, D91E, A96S, L142S, S151C counted along it
T7 sequence (Q15561 whole entry): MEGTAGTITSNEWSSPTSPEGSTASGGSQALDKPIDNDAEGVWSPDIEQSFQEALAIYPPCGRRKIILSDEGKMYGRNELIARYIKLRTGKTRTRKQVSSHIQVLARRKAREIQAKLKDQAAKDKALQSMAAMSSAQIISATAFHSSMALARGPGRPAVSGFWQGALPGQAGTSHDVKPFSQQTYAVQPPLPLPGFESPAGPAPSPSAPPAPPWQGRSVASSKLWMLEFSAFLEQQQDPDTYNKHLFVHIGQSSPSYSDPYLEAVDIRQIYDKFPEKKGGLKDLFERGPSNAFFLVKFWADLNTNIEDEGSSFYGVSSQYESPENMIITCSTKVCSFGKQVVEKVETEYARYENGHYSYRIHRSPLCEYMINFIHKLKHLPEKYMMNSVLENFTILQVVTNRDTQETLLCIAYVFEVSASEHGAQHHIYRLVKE
T1 sequence (Q99594 216-434): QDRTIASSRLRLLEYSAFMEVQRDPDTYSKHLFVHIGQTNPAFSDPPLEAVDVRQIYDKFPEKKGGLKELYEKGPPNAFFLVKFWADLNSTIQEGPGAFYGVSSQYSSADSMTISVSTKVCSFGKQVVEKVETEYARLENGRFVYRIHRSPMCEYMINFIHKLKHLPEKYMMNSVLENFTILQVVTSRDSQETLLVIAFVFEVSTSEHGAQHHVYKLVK
T2 sequence (Q15562 217-447): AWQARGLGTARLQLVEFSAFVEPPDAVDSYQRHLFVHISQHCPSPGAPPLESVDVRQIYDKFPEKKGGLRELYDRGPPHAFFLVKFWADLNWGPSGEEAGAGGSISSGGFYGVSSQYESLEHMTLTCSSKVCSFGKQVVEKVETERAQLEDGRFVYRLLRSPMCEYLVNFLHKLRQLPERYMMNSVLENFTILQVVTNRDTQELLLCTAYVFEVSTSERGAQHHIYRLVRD
T6 sequence (Q62296 209-427 C360A): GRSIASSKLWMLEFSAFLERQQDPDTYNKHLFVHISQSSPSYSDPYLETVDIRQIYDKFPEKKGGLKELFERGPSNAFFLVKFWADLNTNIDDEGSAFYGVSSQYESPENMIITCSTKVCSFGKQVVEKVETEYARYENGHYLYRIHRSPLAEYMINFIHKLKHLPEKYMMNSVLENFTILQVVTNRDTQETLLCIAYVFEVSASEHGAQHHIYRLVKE

pIC50 [1]: 5.34
pIC50 [2]: 5.16
lowering of the melting point (Tm) [3]: 5 °C
inhibition of the interaction of YAP with TEAD [4]: did not inhibit
inhibition of the interaction of YAP with TEAD [5]: did not inhibit
inhibition of the interaction of YAP with TEAD [6]: did not inhibit
melting temperature of hTEAD4 (CETSA) [7]: 53.1 °C
Compound: O=c1cc(CO)oc(C(Nc2ccccc2)c2ccccc2)c1O (stereo not shown) [Compound 19, 3-Hydroxy-6-(hydroxymethyl)-2-(phenyl(phenylamino)methyl)-4H-pyran-4-one]
